From PMC6193035, “Novel small molecules affecting cell membrane as potential therapeutics for avian pathogenic Escherichia coli” (Scientific Reports, 2018)
Converted amounts (≈) assume the structure as drawn.

How the values were obtained:
[1] = system: APEC O78; assay: MIC and MBC determination in M63 media; assay type: cell-based, Escherichia coli; conditions: for MIC / MBC: Escherichia coli; for MBC: subculture on LB agar
Experimental: One microlitre SM of each concentration was transferred to each well of a 96-well plate containing 100 µL of the 0.05 OD600 adjusted APEC O78 culture in M63 media. Growth was monitored in Sunrise - Absorbance microplate reader as described above. MIC was indicated by lowest concentration of SM with non-elevated OD600 measurement. MBC was determined by absence of APEC growth on LB agar plate following subculture. […] Two independent experiments were conducted.

[2] = system: APEC O2; assay: MIC and MBC determination in M63 media; assay type: cell-based; conditions: Escherichia coli
[3] = system: APEC O8; assay: MIC and MBC determination in M63 media; assay type: cell-based; conditions: Escherichia coli
[4] = system: APEC O18; assay: MIC and MBC determination in M63 media; assay type: cell-based; conditions: Escherichia coli
[5] = system: APEC O109; assay: MIC and MBC determination in M63 media; assay type: cell-based; conditions: Escherichia coli
[6] = system: APEC O1-63; assay: MIC and MBC determination in M63 media; assay type: cell-based; conditions: Escherichia coli; APEC O1-63, M63 media
[7] = system: biofilm embedded APEC O78; assay: MBEC High-throughput (HTP) assay; assay type: cell-based, Escherichia coli; conditions: for MBEC as multiple of MIC (superscript): 18 h challenge in M63 media; for MBEC as multiple of MIC: tested 0.5X to 8X MIC
Experimental: The effect of cidal SMs against biofilm embedded APEC was determined using MBEC High-throughput (HTP) assay (Innovotech Inc., AB, Canada)[22]. Briefly, 150 μL of 0.05 OD600 adjusted APEC O78 culture was aliquoted into each well of the MBEC device containing polystyrene pegs and incubated at 37 °C for 36 h in LB media under stationary condition. […] The plate was incubated in the dark for 18 h at 37 °C with rotation at 110 rpm. The DMSO (1%) and […] media were used as positive and negative controls, respectively. Following incubation, MIC of SMs in challenged plate was recorded. The SMs exposed pegs were then transferred to a new 96-well plate containing PBS and sonicated for 30 mins (Aquasonic ultrasonic cleaner, VWR) to disrupt the biofilm. The sonicated suspensions were ten-fold serially diluted and plated on LB agar plate. Biofilm embedded APEC bacteria were enumerated and minimum biofilm eradication concentration (MBEC) of SMs were determined as described previously. Two independent experiments were conducted.

[8] = system: APEC O78; assay: Scanning electron microscopy; assay type: cell-based, Escherichia coli; conditions: 2X MBC
Experimental: The SMs treated APEC O78 cultures prepared above were also processed for scanning electron microscopy (SEM) as described previously. […] Briefly, one volume of bacterial culture was mixed with one volume of fixative (3% glutaraldehyde, 1% paraformaldehyde in 0.1 M potassium phosphate buffer, pH 7.2), and incubated at 4 °C overnight. The fixed bacterial cells were then centrifuged for 5 mins at 1,200 × g, washed twice with PBS, and resuspended in 1% osmium tetroxide for 1 h at room temperature in the dark, followed by serial dehydration of the sample in ethanol and platinum splatter-coating. Visualization and imaging of the sample was performed using a Hitachi S-4700 scanning electron microscope.

[9] = system: STEC O157 and O26 strains; assay: Activity against STEC strains at 100 µM in M63 media; assay type: cell-based, Escherichia coli
[10] = system: E. coli Nissle 1917 and E. coli G58-1; assay: Effect against beneficial microbes; assay type: cell-based, Escherichia coli; conditions: 100 µM
Experimental: SMs were screened against different beneficial microbes to determine their specificity as described previously. SMs were added at 100 µM to 100 µL of 0.05 OD600 adjusted bacterial cultures in specific growth media in 96-well plate, and plate was incubated under indicated conditions. The specific growth media and conditions required for beneficial microbes limited the use of minimal media. Following incubation, endpoint OD600 was measured and cultures from the wells with non-elevated OD600 were plated on selective agar plates to determine the bactericidal effect.

[11] = system: APEC O78; assay: Primary screening, growth inhibition of APEC O78; assay type: cell-based, Escherichia coli; conditions: 100 µM SM; no APEC recovered on LB agar subculture
Experimental: To identify the APEC growth inhibitors, SM library was screened against APEC O78 which is one of the most frequently isolated APEC serotypes from avian colibacillosis cases. One microlitre SMs (final concentration of 100 µM) were added using a slotted pin tool (V and P Scientific, San Diego, CA, USA) to the wells of the 96-well plate containing 100 µL of overnight grown 0.05 OD600 (7 × 10^7 CFU/mL) adjusted APEC culture. Controls (four replicates/plate) containing 1 µL of 100% DMSO (final concentration of 1%), 1 µL chloramphenicol (CHL, #C0378 Sigma-Aldrich) (20 µg/mL), 1 µL kanamycin (KAN, #60615 Sigma-Aldrich) (50 µg/mL), and 100 µL of M63 media were included. To determine the effect of DMSO on APEC growth, antimicrobial activity of DMSO was determined at different concentrations (1% to 32%) in a separate experiment. Plate was then incubated at 37 °C for 12 h in Sunrise - Absorbance microplate reader (Tecan Group Ltd. San Jose, CA) with kinetic OD600 measurement every 30 mins. The quality of screening was assessed by calculating the Z′-score as described previously. The growth inhibition of APEC was calculated by using the formula as previously described[13],[14]. The SMs inhibiting at least 80% of the APEC growth were selected as primary hits. […]

[12] = system: E. coli BW25113; design: method as in https://pubchem.ncbi.nlm.nih.gov/bioassay/710; conditions: 100 µM; ref https://pubchem.ncbi.nlm.nih.gov/bioassay/710; cited from earlier work

| SMILES | MIC [1] [µM] | MBC [1] [µM] | MBC [2] [µM] | MIC [2] [µM] | MBC [3] [µM] | MIC [3] [µM] | MBC [4] [µM] | MIC [4] [µM] | MBC [5] [µM] | MIC [5] [µM] | MBC [6] [µM] | MIC [6] [µM] | MBEC as multiple of MIC (superscript) [7] | cell morphology in SEM [8] | MBC relative to MIC [1] | bactericidal activity against STEC strains [9] | MBEC as multiple of MIC [7] [X MIC] | other results |
| --- | --- | --- | --- | --- | --- | --- | --- | --- | --- | --- | --- | --- | --- | --- | --- | --- | --- | --- |
| CC1CCC(C(C)C)C(OC(=O)Cn2c[n+](CC(=O)OC3CC(C)CCC3C(C)C)c3ccccc32)C1 (stereo not drawn) [SM4] | 25 | 50 | 50 | 25 | 25 | 25 | 50 | 25 | 25 | 25 | 50 | 25 | a (0.5X MIC) | severe wrinkling and multiple blebbing throughout the cells (membrane disruptors) |  |  |  |  |
| COc1ccc(CCN(Cc2cc3c(cc2Cl)OCO3)CC2CCN(C)CC2)cc1 [SM11] | 100 (≈ 43.1 µg/mL) | 100 (≈ 43.1 µg/mL) | 200 (≈ 86.2 µg/mL) | 100 (≈ 43.1 µg/mL) | 200 (≈ 86.2 µg/mL) | 200 (≈ 86.2 µg/mL) | 200 (≈ 86.2 µg/mL) | 200 (≈ 86.2 µg/mL) | 200 (≈ 86.2 µg/mL) | 200 (≈ 86.2 µg/mL) | 200 (≈ 86.2 µg/mL) | 100 (≈ 43.1 µg/mL) | d (4X MIC) |  | identical to MIC | not cidal | 4 |  |
| COc1cc(CNCCc2ccc(C)cc2)ccc1OCC(O)CN1CCCC1 (stereo not drawn) [SM3] | 100 (≈ 39.9 µg/mL) | 100 (≈ 39.9 µg/mL) | 200 (≈ 79.7 µg/mL) | 100 (≈ 39.9 µg/mL) | 100 (≈ 39.9 µg/mL) | 100 (≈ 39.9 µg/mL) | 100 (≈ 39.9 µg/mL) | 100 (≈ 39.9 µg/mL) | 200 (≈ 79.7 µg/mL) | 100 (≈ 39.9 µg/mL) | 200 (≈ 79.7 µg/mL) | 200 (≈ 79.7 µg/mL) | b (1X MIC) | blebbing and pore at single cell pole, respectively | identical to MIC |  |  |  |
| CC(=O)OC(C(Br)C(=O)c1ccc([N+](=O)[O-])cc1)C(Cl)(Cl)Cl (stereo not drawn) [SM10] | 25 (≈ 10.8 µg/mL) | 50 (≈ 21.7 µg/mL) | 50 (≈ 21.7 µg/mL) | 25 (≈ 10.8 µg/mL) | 50 (≈ 21.7 µg/mL) | 50 (≈ 21.7 µg/mL) | 100 (≈ 43.3 µg/mL) | 25 (≈ 10.8 µg/mL) | 50 (≈ 21.7 µg/mL) | 25 (≈ 10.8 µg/mL) | 100 (≈ 43.3 µg/mL) | 50 (≈ 21.7 µg/mL) |  | shortened cells (~0.5 µM) and blebbing at both cell poles |  |  | > 8 | effect on E. coli Nissle 1917 and E. coli G58-1 [10]: did not have effect; concentration that significantly (P < 0.01) reduced biofilm embedded APEC ([7]; no eradication): 1 X MIC |
| CC1CCCN(CCC(=O)c2ccc(Br)cc2)C1 (stereo not drawn) [SM1] | 200 (≈ 62 µg/mL) | 200 (≈ 62 µg/mL) | 200 (≈ 62 µg/mL) | 200 (≈ 62 µg/mL) | 200 (≈ 62 µg/mL) | 200 (≈ 62 µg/mL) | 200 (≈ 62 µg/mL) | 200 (≈ 62 µg/mL) | 200 (≈ 62 µg/mL) | 200 (≈ 62 µg/mL) | 250 (≈ 77.6 µg/mL) | 200 (≈ 62 µg/mL) | d (4X MIC) |  | identical to MIC | not cidal | 4 | bactericidal effect in primary screening [11]: bactericidal |
| COc1cc(CNCCc2ccc3ccccc3c2)ccc1OCC(O)CN1CCCC1 (stereo not drawn) [SM2] | 100 (≈ 43.5 µg/mL) | 100 (≈ 43.5 µg/mL) | 250 (≈ 109 µg/mL) | 200 (≈ 86.9 µg/mL) | 200 (≈ 86.9 µg/mL) | 100 (≈ 43.5 µg/mL) | 200 (≈ 86.9 µg/mL) | 100 (≈ 43.5 µg/mL) | 200 (≈ 86.9 µg/mL) | 100 (≈ 43.5 µg/mL) | 250 (≈ 109 µg/mL) | 200 (≈ 86.9 µg/mL) | b (1X MIC) |  | identical to MIC | not cidal |  |  |
| CCN1/C(=C/c2ccc3ccccc3[n+]2CC)C=Cc2ccccc21 [SM9] | 25 | 50 | 50 | 25 | 50 | 25 | 100 | 25 | 50 | 25 | 100 | 50 | b (1X MIC) |  |  |  |  | effect on E. coli Nissle 1917 and E. coli G58-1 [10]: did not have effect; growth inhibition of E. coli BW25113 [12]: 57% |
